Numbering of substitutions follows the chain as printed.
Key:
hSGLT5 Asn96Ile = molecular target: T1, hSGLT5 Asn96Ile (Homo sapiens, UniProt A0PJK1, N96I); experiment: Inhibition of 10 µM 1,5-AG transport by SGLT5 variant Asn96Ile; type: cell-based; conditions: mutation Asn96Ile versus SGLT5, Fig. 5D
T1 construct: pUB83-hSGLT5-iso2 as well as the various SGLT5 mutants obtained were used to transduce HEK293T cells; expressed in transfected cells; host or cells: HEK293T, lentiviral transduction (pUB83)
T1 sequence (A0PJK1 1-596 N96I): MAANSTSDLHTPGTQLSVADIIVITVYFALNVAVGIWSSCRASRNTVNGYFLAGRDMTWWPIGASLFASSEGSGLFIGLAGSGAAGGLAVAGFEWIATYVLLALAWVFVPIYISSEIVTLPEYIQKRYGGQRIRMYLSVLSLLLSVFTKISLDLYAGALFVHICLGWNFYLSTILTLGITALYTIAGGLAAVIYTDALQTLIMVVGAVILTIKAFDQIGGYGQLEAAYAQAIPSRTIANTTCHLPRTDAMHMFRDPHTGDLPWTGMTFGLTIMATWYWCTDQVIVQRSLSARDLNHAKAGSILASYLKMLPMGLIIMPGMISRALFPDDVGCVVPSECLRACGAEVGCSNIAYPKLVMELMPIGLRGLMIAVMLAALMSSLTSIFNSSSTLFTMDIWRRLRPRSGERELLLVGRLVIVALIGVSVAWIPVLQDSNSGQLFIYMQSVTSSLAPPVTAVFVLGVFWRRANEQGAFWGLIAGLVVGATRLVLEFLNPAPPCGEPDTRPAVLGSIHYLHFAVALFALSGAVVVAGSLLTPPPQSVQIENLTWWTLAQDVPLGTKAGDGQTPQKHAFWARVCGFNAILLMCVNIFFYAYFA
Procedure: The transport experiments to study the specificity of SGLT4 or SGLT5, were performed in the presence of 10 µM U-[^14C + ^12C]-mannose (for SGLT4) or 2-[^3H + ^1H]-1,5-AG (for SGLT5) and increasing concentrations of various sugars tested. The transport experiments to study the inhibition of empagliflozin, dapagliflozin or remogliflozin, on the transport of 1,5-AG by SGLT5 or its variants were performed in the presence of 10 µM 2-[^3H + ^1H]-1,5-AG and increasing concentrations of the various gliflozins tested.
SGLT5 mutants were created using the quick-change site directed mutagenesis method that enables effective mutagenesis without subcloning of the amplified PCR products. Complementary primer pairs carrying the desired replacements (Supplementary Table 3) were designed using an online tool (https://www.agilent.com/store/primerDesignProgram.jsp). The PCR protocol was carried out following the manufacturer instructions regarding the KOD HOT Start polymerase kit (TOYOBO™, Novagen). The amplified DNA was cleaned-up from the reactions constituents using the GeneJET PCR purification Kit (Thermo Scientific™) and the size of the DNA fragment were verified by DNA agarose-gel electrophoresis. […]

hSGLT5 Ala522Val = molecular target: T2, hSGLT5 Ala522Val (Homo sapiens, UniProt A0PJK1, A522V); experiment: 1,5-AG uptake in HEK293T cells overexpressing SGLT5 variant Ala522Val; type: cell-based
T2 construct: pUB83-hSGLT5-iso2 as well as the various SGLT5 mutants obtained were used to transduce HEK293T cells; expressed in transfected cells; host or cells: HEK293T, lentiviral transduction (pUB83)
T2 sequence (A0PJK1 1-596 A522V): T1 sequence (A0PJK1 1-596 N96I) with I96N, A522V
Procedure: For a typical transporter experiment we proceeded as follows. […] To minimize cell loss during the various washing steps in the radioactive uptake experiments, the wells where the cells were seeded were previously coated with poly- D-lysine, which improved their adhesion to the plastic surface of the wells. For this, each well of the 24-well plates was treated with 200 µl of a 0.01% poly-L-lysine solution for 10 min, washed 3 times with 1 ml of sterilized water and left to dry for 2 h. Only then could the 24-well plates be seeded with the appropriate cell lines and cultured overnight at 37 °C in 5% CO2.
On day two, the radioactive uptake assay could be performed. The cell culture media was removed by aspiration and cells were incubated for 20 min at 37 °C and 5% CO2 with a basal medium (10 mM HEPES, pH 7.4, 1 mM CaCl2, 1 mM MgCl2, 2 mM KCl) containing 140 mM choline chloride to deplete intracellular Na^2+ ions. […]
Once the uptake medium was added to the cells, the plates were incubated at 37 °C in 5% CO2 during the required time. […] In each experiment, the transport activities were calculated after subtracting a “blank” value, corresponding to the radioactivity in the appropriate control cells (HEK293T cells that were stably or transiently transfected with one of the parent plasmids pEF6/MycHisA, pEF6HisB, pUB82 or pUB83 with no inserted cDNA) that were analyzed in parallel. […]

| SMILES | effect of mutation on inhibition exerted by empagliflozin (hSGLT5 Asn96Ile) | Vmax (hSGLT5 Ala522Val; variant Ala522Val) | effect of mutation on ability of SGLT5 to transport 1,5-AG (hSGLT5 Ala522Val; variant Ala522Val (control)) |
| --- | --- | --- | --- |
| OC[C@H]1O[C@@H](c2ccc(Cl)c(Cc3ccc(O[C@H]4CCOC4)cc3)c2)[C@H](O)[C@@H](O)[C@@H]1O [empagliflozin] | considerably decreased (by more than tenfold) |  |  |
| OC[C@H]1OC[C@H](O)[C@@H](O)[C@@H]1O [1,5-AG, 1,5-anhydroglucitol] |  | 18.3 ± 0.5 pmol/min/10^5cells | no effect |

From publication PMC10439028, “SGLT5 is the renal transporter for 1,5-anhydroglucitol, a major player in two rare forms of neutropenia” (Cellular and Molecular Life Sciences: CMLS, 2023)
